ChEMBL document CHEMBL3286098, “α-Methylated simplified resiniferatoxin (sRTX) thiourea analogues as potent and stereospecific TRPV1 antagonists” (Bioorg Med Chem Lett, 2014)
Activity calls are given as the source filed them. No cut-off for these calls is given here.

How the values were obtained:
[1] = biological target: T1, Transient receptor potential cation channel subfamily V member 1 (Rattus norvegicus, UniProt O35433); experiment: Displacement of [3H]RTX from rat TRPV1 after 60 mins by competitive binding assay
[2] = biological target: T1, Transient receptor potential cation channel subfamily V member 1; experiment: Antagonist activity at rat TRPV1 heterologously expressed in CHO cells assessed as inhibition of capsaicin-induced [45Ca2+] uptake by liquid scintillation counting; assay type: cell-based
[3] = biological target: Transient receptor potential cation channel subfamily V member 1 (Rattus norvegicus) (UniProt O35433); experiment: Agonist activity at rat TRPV1 heterologously expressed in CHO cells assessed as […] [45Ca2+] uptake by liquid scintillation counting; assay type: cell-based
Chain of Transient receptor potential cation channel subfamily V member 1 (Rattus norvegicus) (O35433 whole entry): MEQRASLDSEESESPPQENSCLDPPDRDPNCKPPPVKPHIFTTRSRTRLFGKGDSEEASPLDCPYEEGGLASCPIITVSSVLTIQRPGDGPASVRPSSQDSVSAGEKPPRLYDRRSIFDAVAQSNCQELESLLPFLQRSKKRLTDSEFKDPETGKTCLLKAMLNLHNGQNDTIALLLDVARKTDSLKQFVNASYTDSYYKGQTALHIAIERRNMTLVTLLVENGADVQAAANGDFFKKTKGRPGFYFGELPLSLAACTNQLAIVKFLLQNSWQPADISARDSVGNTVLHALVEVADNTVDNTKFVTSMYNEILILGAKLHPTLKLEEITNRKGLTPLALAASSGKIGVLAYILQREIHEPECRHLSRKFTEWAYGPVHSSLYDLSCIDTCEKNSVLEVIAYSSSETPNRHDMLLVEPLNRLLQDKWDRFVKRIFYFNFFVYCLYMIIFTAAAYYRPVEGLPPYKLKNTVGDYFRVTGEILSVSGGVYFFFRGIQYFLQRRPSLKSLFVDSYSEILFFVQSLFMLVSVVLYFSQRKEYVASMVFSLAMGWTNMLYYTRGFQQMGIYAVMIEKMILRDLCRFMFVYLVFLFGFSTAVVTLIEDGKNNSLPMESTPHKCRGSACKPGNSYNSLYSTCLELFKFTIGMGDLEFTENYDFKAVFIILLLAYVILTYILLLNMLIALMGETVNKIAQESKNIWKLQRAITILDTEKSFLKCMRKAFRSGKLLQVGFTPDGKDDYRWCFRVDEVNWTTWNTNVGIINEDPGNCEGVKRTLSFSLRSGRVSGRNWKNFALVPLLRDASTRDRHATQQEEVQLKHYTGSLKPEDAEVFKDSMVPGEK

T1 sequence (O35433 whole entry): as above

Compound | Ki [1] | Ki [2] | Activity [3]
CC(C)(C)C(=O)OC[C@@H](CNC(=S)NCc1ccc(NS(C)(=O)=O)cc1)Cc1ccccc1 | 252 nM | 64.3 nM | inactive
C[C@@H](NC(=S)NC[C@@H](COC(=O)C(C)(C)C)Cc1ccc(C(C)(C)C)cc1)c1ccc(NS(C)(=O)=O)cc1 | 6.75 nM | – | inactive
Cc1ccc(CC(CNC(=S)NC(C)c2ccc(NS(C)(=O)=O)cc2)COC(=O)C(C)(C)C)cc1C (racemic) | – | – | inactive
C[C@@H](NC(=S)N[C@@H](COC(=O)C(C)(C)C)Cc1ccccc1)c1ccc(NS(C)(=O)=O)cc1 | – | – | inactive
C[C@H](NC(=S)N[C@@H](COC(=O)C(C)(C)C)Cc1ccccc1)c1ccc(NS(C)(=O)=O)cc1 | – | – | inactive
C[C@@H](NC(=S)NC[C@@H](COC(=O)C(C)(C)C)Cc1ccccc1)c1ccc(NS(C)(=O)=O)cc1 | – | – | inactive
CC(C)(C)C(=O)OC[C@@H](CNC(=S)NCc1ccc(NS(C)(=O)=O)cc1)Cc1ccc(C(C)(C)C)cc1 | 64 nM | 86 nM | –
C[C@@H](NC(=S)NC[C@H](COC(=O)C(C)(C)C)Cc1ccccc1)c1ccc(NS(C)(=O)=O)cc1 | – | – | inactive
C[C@@H](NC(=S)NCC(COC(=O)C(C)(C)C)Cc1ccc(C(C)(C)C)cc1)c1ccc(NS(C)(=O)=O)cc1 (stereo not given in full) | – | – | inactive
C[C@H](NC(=S)NC[C@H](COC(=O)C(C)(C)C)Cc1ccccc1)c1ccc(NS(C)(=O)=O)cc1 | – | – | inactive
Cc1ccc(CC(CNC(=S)N[C@H](C)c2ccc(NS(C)(=O)=O)cc2)COC(=O)C(C)(C)C)cc1C (stereo not given in full) | – | – | inactive
CC(NC(=S)NCC(COC(=O)C(C)(C)C)Cc1ccc(C(C)(C)C)cc1)c1ccc(NS(C)(=O)=O)cc1 (racemic) | – | – | inactive
C[C@@H](NC(=S)N[C@H](COC(=O)C(C)(C)C)Cc1ccccc1)c1ccc(NS(C)(=O)=O)cc1 | – | – | inactive
C[C@@H](NC(=S)NC[C@H](COC(=O)C(C)(C)C)Cc1ccc(C(C)(C)C)cc1)c1ccc(NS(C)(=O)=O)cc1 | 17.9 nM | – | inactive
Cc1ccc(C[C@@H](CNC(=S)N[C@H](C)c2ccc(NS(C)(=O)=O)cc2)COC(=O)C(C)(C)C)cc1C | 2.12 nM | 13.2 nM | inactive
CC(C)(C)C(=O)OC[C@H](CNC(=S)NCc1ccc(NS(C)(=O)=O)cc1)Cc1ccccc1 | 236 nM | 80.6 nM | inactive
C[C@H](NC(=S)NC[C@@H](COC(=O)C(C)(C)C)Cc1ccccc1)c1ccc(NS(C)(=O)=O)cc1 | – | – | inactive
Cc1ccc(C[C@H](CNC(=S)NCc2ccc(NS(C)(=O)=O)cc2)COC(=O)C(C)(C)C)cc1C | 29.3 nM | 67 nM | –
Cc1ccc(C[C@H](CNC(=S)N[C@H](C)c2ccc(NS(C)(=O)=O)cc2)COC(=O)C(C)(C)C)cc1C | – | – | inactive
C[C@H](NC(=S)N[C@H](COC(=O)C(C)(C)C)Cc1ccccc1)c1ccc(NS(C)(=O)=O)cc1 | – | – | inactive
